From patent US20050153406A1, “Process for producing solution containing ubiquinone-10” (priority 2002, published 2005)

Experiment: Solubility of ubiquinone-10 in aqueous methanol solution
Assay type: physicochemical
Conditions: aqueous methanol solutions of varying concentration at 20, 30, 50 and 70° C. (FIG. 1)
Text: Using a standard ubiquinone-10 (manufactured by Wako Pure Chemical Industries Co., Ltd.), the solubility of ubiquinone-10 is an aqueous methanol solution was examined in terms of the relation between the concentration of the solution and temperature.

For COC1=C(OC)C(=O)C(C/C=C(\C)CC/C=C(\C)CC/C=C(\C)CC/C=C(\C)CC/C=C(\C)CC/C=C(\C)CC/C=C(\C)CC/C=C(\C)CC/C=C(\C)CCC=C(C)C)=C(C)C1=O [ubiquinone-10], the “solubility of ubiquinone-10 in aqueous methanol solution” value was “increased in proportion to the methanol concentration and the temperature of the aqueous methanol solution”.
